Assays:
Format in all cases: biochemical
Kdr = target: T1, Kdr (Homo sapiens, UniProt P35968); test: Z'-Lyte FRET kinase assay (Invitrogen), Kdr; conditions: read-out: IC50, activity toward kinase Kdr
T1 construct: purchased Invitrogen (assay run by Invitrogen)

Gsk3β = Gsk3β (Homo sapiens, UniProt P49841); test: AlphaScreen kinase assay, Gsk3β; conditions: read-out: IC50, activity toward kinase Gsk3β
Text: AlphaScreen assay was used to screen additional kinases. The assay is similarly dependent on the phosphorylation of a peptide substrate. In this assay, an antibody that recognizes phosphorylated substrate is bound to an acceptor bead. The peptide substrate is attached to biotin, which binds to a donor head that contains streptavidin. Thus phosphorylated substrate is bound by antibody and streptavidin, bringing the donor and acceptor heads into close proximity when kinase is not inhibited. The donor produces singlet oxygen which results in emission from the acceptor when they are in close proximity. Conversely, when kinase is inhibited, the donor and acceptor beads are not associated and the emission from the acceptor is reduced.
AlphaScreen assays were done using compounds dissolved in DMSO to a concentration of 20 mM. The compounds were diluted accordingly to the desired final concentrations in each sample well, using 1:3 serial dilution for a total of 8 concentration points.

Abl = target: T2, Abl (Homo sapiens, UniProt P00519); test: AlphaScreen kinase assay, Abl; conditions: read-out: activity toward kinase Abl, IC50
T2 construct: P1121. pET-SPEC BI-PTP Abl G227-V515-X; His6 (N); made in house; host or cells: E. coli (PTP1B co-expressed)
T2 sequence (P00519 with tags, fused parts or gaps): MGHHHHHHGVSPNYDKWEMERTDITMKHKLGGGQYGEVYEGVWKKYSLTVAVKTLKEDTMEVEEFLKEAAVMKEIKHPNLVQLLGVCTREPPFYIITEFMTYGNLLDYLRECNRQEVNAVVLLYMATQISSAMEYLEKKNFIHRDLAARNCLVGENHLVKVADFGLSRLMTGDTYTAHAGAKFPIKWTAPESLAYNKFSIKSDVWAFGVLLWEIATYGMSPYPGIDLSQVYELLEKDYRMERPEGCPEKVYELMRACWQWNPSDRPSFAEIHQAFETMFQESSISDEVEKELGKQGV
Summary of the method: (§1)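 Biotinylated peptide substrate phosphorylation detected by AlphaScreen with phospho-specific antibody acceptor beads and streptavidin donor beads. Compounds tested as 8-point 1:3 serial dilutions from 20 mM DMSO stocks.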

Stk6 = target: T3, Stk6 (Homo sapiens, UniProt O14965); test: Z'-Lyte FRET kinase assay (Invitrogen), Stk6; conditions: read-out: IC50, activity toward kinase Stk6
T3 construct: purchased Invitrogen (Carlsbad, Calif.), screening service
T3 sequence (O14965 1-403): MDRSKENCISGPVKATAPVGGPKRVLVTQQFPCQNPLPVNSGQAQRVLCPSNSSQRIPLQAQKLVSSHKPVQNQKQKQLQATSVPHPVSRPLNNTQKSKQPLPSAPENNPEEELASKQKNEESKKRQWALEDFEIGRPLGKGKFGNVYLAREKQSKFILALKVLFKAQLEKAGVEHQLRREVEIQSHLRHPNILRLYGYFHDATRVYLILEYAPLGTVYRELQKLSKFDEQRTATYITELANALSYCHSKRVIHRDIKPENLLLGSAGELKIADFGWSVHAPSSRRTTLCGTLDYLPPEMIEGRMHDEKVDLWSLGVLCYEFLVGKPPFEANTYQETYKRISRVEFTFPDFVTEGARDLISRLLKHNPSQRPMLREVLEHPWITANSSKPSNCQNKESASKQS

Pyk2 = target: T4, Pyk2 (Homo sapiens, UniProt Q14289); test: AlphaScreen kinase assay, Pyk2; conditions: read-out: IC50, activity toward kinase Pyk2
T4 construct: purchased Upstate Biotechnology

Kit = target: T5, Kit (Homo sapiens, UniProt P10721); test: AlphaScreen kinase assay, Kit; conditions: read-out: IC50, activity toward kinase Kit
T5 construct: P1332.N6 BI PTP KIT M552-K948-X COD; His6 (N); made in house; host or cells: E. coli (PTP1B co-expressed)
T5 sequence (P10721 with tags, fused parts or gaps): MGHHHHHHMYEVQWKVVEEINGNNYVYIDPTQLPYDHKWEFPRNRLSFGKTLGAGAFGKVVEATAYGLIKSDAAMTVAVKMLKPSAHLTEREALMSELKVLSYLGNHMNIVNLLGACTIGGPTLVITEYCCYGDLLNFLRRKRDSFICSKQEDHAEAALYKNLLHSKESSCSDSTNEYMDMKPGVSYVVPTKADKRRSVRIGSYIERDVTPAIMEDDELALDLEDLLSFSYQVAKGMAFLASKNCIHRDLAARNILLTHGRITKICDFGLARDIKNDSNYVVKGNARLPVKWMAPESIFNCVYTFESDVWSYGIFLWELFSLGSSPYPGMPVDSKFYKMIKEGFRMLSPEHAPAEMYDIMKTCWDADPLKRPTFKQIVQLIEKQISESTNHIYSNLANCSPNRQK

Jnk3 = target: T6, Jnk3 (Homo sapiens, UniProt P53779); test: AlphaScreen kinase assay, Jnk3; conditions: read-out: IC50, activity toward kinase Jnk3
T6 construct: purchased Upstate Biotechnology

Flt1 = target: T7, Flt1 (Homo sapiens, UniProt P17948); test: AlphaScreen kinase assay, Flt1; conditions: read-out: IC50, activity toward kinase Flt1
T7 construct: P1826.pETN6 BI-PTP FLT1 M799-D1165-X WT; His6 (N); made in house; host or cells: E. coli (PTP1B co-expressed)
T7 sequence (P17948 with tags, fused parts or gaps): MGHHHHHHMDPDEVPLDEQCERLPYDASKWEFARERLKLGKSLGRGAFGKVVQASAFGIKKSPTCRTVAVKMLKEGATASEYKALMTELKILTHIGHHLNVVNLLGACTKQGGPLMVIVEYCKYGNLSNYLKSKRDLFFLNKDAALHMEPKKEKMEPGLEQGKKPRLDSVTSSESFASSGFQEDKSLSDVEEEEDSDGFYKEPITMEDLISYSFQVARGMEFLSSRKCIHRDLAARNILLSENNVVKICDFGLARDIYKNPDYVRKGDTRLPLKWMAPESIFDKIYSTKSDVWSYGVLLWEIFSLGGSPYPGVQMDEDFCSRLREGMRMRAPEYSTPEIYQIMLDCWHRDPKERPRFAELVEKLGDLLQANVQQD

Fms = target: T8, Fms (Homo sapiens, UniProt P07333); test: AlphaScreen kinase assay, Fms; conditions: read-out: IC50, activity toward kinase Fms
T8 construct: purchased Upstate Biotechnology
T8 sequence (P07333 20-972): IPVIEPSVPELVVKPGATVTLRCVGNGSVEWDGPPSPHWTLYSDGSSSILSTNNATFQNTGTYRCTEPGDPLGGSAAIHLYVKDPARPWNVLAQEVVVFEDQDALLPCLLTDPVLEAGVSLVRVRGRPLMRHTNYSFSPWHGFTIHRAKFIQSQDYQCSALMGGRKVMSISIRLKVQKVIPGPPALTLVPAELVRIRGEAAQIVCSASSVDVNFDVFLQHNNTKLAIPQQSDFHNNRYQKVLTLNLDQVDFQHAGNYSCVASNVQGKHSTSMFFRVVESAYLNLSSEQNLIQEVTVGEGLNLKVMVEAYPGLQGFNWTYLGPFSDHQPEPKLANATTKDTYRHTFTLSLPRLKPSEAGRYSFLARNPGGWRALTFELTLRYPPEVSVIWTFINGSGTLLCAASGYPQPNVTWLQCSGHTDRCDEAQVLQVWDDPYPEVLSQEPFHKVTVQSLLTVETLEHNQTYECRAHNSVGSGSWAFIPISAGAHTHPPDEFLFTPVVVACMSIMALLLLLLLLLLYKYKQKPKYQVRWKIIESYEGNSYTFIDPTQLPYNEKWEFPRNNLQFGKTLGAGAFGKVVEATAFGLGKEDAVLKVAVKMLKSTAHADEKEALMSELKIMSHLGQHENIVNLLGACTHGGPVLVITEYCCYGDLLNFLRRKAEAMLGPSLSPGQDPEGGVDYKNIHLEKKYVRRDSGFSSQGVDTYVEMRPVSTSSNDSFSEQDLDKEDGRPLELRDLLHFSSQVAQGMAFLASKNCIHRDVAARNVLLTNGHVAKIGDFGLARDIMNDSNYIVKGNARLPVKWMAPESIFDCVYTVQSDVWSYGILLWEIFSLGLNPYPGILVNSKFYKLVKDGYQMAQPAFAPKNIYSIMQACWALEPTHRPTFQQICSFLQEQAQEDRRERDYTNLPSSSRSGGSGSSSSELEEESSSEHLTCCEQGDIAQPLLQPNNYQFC

MAP4K4 = MAP4K4 (Homo sapiens, UniProt O95819); test: AlphaScreen kinase assay, MAP4K4; conditions: read-out: IC50, activity toward kinase MAP4K4
MAP4K4, sequence (O95819 whole entry): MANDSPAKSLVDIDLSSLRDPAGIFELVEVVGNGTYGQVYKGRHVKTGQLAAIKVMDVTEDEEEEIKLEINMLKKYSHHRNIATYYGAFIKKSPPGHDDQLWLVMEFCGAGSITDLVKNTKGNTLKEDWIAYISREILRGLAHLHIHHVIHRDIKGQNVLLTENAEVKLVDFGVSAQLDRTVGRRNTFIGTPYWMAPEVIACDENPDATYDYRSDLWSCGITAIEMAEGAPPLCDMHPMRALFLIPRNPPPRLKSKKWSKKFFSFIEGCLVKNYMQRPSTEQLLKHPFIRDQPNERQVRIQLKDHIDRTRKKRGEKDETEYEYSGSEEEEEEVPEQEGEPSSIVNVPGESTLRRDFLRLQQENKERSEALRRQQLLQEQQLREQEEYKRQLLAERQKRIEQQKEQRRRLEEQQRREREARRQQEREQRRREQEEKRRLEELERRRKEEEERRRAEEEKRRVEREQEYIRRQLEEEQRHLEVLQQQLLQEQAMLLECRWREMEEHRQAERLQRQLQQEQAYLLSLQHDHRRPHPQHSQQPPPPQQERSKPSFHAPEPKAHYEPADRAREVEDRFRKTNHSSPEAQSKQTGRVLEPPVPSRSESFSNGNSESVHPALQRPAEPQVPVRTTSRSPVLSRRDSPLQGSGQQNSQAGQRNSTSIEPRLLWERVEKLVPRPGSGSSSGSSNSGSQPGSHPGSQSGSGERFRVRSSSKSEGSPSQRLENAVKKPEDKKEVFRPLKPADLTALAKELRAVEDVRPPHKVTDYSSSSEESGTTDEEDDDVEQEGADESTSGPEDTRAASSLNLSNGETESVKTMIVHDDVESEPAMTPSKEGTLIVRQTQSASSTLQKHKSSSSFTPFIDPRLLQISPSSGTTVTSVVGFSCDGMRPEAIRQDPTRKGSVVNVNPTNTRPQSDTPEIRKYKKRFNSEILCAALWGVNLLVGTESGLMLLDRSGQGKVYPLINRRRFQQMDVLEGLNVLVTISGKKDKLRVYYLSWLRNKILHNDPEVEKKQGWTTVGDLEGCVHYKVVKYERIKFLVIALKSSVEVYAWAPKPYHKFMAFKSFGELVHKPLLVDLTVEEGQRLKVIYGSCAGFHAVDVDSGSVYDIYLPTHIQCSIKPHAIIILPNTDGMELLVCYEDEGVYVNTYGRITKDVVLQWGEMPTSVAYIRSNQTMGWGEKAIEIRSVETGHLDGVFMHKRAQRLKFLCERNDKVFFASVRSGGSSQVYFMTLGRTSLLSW

B-Raf = target: T9, B-Raf (Homo sapiens, UniProt P15056); test: AlphaScreen kinase assay, B-Raf; conditions: read-out: IC50, activity toward kinase B-Raf
T9 construct: purchased Upstate Biotechnology
T9 sequence (P15056 whole entry): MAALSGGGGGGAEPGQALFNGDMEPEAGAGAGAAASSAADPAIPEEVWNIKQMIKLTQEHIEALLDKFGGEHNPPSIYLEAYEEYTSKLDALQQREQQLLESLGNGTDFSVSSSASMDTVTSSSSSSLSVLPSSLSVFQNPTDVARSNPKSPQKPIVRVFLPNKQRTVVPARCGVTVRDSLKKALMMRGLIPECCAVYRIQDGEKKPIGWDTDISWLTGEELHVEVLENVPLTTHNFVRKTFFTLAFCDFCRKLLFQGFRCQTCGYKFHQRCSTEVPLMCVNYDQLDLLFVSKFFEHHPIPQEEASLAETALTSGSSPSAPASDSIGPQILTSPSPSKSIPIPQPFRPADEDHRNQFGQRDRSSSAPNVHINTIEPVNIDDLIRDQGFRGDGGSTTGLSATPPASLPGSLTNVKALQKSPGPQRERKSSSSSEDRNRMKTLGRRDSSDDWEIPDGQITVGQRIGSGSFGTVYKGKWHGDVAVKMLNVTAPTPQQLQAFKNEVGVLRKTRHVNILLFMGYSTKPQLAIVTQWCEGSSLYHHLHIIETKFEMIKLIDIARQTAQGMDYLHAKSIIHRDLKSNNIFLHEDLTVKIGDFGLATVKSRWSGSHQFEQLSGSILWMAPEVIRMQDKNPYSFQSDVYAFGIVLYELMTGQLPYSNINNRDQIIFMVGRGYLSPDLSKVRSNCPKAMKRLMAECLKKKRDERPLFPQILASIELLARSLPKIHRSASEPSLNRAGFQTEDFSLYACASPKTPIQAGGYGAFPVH

c-Raf-1 = target: T10, c-Raf-1 (Homo sapiens, UniProt P04049); test: AlphaScreen kinase assay, c-Raf-1; conditions: read-out: IC50, activity toward kinase c-Raf-1
T10 construct: purchased Upstate Biotechnology
T10 sequence (P04049 whole entry): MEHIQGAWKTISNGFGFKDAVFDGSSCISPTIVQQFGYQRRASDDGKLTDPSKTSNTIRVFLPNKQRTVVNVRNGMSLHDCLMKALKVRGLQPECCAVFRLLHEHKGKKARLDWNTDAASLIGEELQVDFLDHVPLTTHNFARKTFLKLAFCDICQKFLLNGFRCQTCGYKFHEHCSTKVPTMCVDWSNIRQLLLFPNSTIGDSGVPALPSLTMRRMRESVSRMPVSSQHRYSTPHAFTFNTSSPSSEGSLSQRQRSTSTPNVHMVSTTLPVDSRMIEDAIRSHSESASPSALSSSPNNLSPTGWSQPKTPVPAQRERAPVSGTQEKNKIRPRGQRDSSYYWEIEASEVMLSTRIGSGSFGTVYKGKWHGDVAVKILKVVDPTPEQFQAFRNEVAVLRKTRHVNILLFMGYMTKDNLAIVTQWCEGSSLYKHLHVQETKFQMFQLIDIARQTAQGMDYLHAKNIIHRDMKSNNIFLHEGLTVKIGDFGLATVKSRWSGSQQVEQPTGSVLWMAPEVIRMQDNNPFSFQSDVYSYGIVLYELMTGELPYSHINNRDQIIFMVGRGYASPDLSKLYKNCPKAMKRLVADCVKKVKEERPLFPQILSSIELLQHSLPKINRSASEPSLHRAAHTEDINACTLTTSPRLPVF

B-Raf V600E = target: T11, B-Raf V600E (Homo sapiens, UniProt P15056, V600E); test: AlphaScreen kinase assay, B-Raf V600E; conditions: read-out: IC50, activity toward kinase B-Raf V600E
T11 construct: P4254. pFastBacBD-CDC37 BRAF D437-K722-X, V600E; His6 with pFastBac HT leader (TEV site) (N); made in house; host or cells: Sf9 (baculovirus; chaperone CDC37 co-expressed)
T11 sequence (P15056 with tags, fused parts or gaps V600E): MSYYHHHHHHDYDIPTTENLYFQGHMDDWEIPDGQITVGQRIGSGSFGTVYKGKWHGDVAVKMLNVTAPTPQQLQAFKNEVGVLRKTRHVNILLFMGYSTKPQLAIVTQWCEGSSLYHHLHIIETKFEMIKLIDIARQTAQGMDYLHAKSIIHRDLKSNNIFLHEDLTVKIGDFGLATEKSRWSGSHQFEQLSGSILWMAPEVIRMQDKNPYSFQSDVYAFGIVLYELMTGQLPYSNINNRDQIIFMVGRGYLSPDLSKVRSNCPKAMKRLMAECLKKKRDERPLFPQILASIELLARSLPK

FGFR1 = target: T12, FGFR1 (Homo sapiens, UniProt P11362, C488A/C584S); test: AlphaScreen kinase assay, FGFR1; conditions: read-out: IC50, activity toward kinase FGFR
T12 construct: P1351.pET N6 BI-PTP FGFR A458-E765-X C488A, C584S; made in house; host or cells: E. coli (PTP1B co-expressed)
T12 sequence (P11362 458-765 C488A/C584S): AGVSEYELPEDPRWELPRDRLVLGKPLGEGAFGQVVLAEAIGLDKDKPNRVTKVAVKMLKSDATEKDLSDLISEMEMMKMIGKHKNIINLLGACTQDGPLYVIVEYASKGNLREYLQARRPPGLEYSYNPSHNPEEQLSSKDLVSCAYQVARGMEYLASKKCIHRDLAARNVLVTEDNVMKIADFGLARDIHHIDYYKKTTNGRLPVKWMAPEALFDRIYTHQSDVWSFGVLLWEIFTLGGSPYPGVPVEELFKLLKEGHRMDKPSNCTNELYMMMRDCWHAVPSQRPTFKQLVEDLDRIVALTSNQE

Ret = target: T13, Ret (Homo sapiens, UniProt P07949); test: AlphaScreen kinase assay, Ret; conditions: read-out: IC50, activity toward kinase Ret
T13 construct: P1378.pET-SF BI-PTP RET H661-R1012 HIS; made in house
T13 sequence (P07949 with tags, fused parts or gaps): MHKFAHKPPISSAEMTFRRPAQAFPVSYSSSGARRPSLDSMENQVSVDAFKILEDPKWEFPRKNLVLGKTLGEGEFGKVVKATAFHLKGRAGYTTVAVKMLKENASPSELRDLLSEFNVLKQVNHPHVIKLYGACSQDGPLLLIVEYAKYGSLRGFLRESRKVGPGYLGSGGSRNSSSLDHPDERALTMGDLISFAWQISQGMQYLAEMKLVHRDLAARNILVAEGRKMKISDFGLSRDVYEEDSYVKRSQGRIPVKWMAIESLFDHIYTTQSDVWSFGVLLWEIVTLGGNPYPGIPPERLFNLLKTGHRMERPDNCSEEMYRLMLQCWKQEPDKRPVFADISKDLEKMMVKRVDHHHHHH

Met = target: T14, Met (Homo sapiens, UniProt P08581); test: AlphaScreen kinase assay, Met; conditions: read-out: IC50, activity toward kinase Met
T14 construct: P1818.pETN6 BI-PTP MET G1056-G1364-X WT; His6 (N); made in house; host or cells: E. coli (PTP1B co-expressed)
Summary of the method: as §1

Src = target: T15, Src (Homo sapiens, UniProt P12931); test: AlphaScreen kinase assay, Src; conditions: read-out: IC50, activity toward kinase Src
T15 construct: P1144. pET-N6 BI-PTP SRC V86-L536-X; made in house

Jnk1 = target: T16, Jnk1 (Homo sapiens, UniProt P45983); test: AlphaScreen kinase assay, Jnk1; conditions: read-out: IC50, activity toward kinase Jnk1
T16 construct: purchased Upstate Biotechnology

Btk = target: T17, Btk (Homo sapiens, UniProt Q06187); test: Z'-Lyte FRET kinase assay (Invitrogen), Btk; conditions: read-out: IC50, activity toward kinase Btk
T17 construct: purchased Invitrogen (assay run by Invitrogen)
Text: For example, direct radiometric, indirect FRET or AlphaScreen assays may be used to assess the level of phosphorylation of a substrate in the presence of test compounds in order to determine the inhibitory affect of the compound on the kinase. […] For these assays, compounds of the invention were screened by Invitrogen using Z′-Lyte™ kinase assay.
Briefly, the Invitrogen kinase assay involves use of a specific peptide substrate optimized for each kinase, containing a fluorophore at each end that make up the FRET pair. The peptide sensitivity to proteolytic cleavage depends on phosphorylation of the peptide. Non-phosphorylated peptide is cleaved by a protease while peptide phosphorylated by the kinase is not cleaved. Cleavage of the peptide disrupts the FRET between the donor (coumarin) and acceptor (fluorescein) fluorophores, resulting in an increase in the ratio of donor emission to acceptor emission. The emission ratio of coumarin to fluorescein is used to assess the reaction progress. […] Thus, the assay involves a kinase reaction in the presence of varying concentrations of a given compound, a development reaction with site specific protease, and detection of the fluorescent emission ratio of coumarin and fluorscein. […] Reaction conditions for each kinase are determined to provide optimal reaction times, incubation temperature, kinase and ATP concentrations. Test samples are made up in 1× kinase buffer (50 mM HEPES pH 7.5, 50 mM MgCl2, 5 mM EGTA, 0.05% BRIJ-35) and compound at desired concentration prepared in DMSO such that the final DMSO is 1%. […] All kinase except for MAP2K1 were at 10 μM ATP in the kinase reaction, while MAP2K1 was at 100 μM. Samples are mixed and the kinase reaction is incubated 1 hour at room temperature, after which 5 μl of development solution is added and mixed. After incubation for another 1 hour at room temperature, 5 μl of stop reagent is added to each sample and mixed. The fluorescence signals are measured to determine the emission ratio.

Measured: IC50

Gsk3β, sequence (P49841 whole entry): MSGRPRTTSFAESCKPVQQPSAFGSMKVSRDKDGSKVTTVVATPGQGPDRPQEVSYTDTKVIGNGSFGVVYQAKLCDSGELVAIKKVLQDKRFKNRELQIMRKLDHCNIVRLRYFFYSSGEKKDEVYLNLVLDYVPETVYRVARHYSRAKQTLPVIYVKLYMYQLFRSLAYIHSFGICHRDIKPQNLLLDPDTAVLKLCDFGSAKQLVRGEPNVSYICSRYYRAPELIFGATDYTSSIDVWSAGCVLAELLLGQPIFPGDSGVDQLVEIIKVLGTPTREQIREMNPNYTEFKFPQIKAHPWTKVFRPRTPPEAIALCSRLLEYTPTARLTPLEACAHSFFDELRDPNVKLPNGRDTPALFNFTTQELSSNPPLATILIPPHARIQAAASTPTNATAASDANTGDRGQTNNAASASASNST

S=C(NCc1ccccn1)NCc1c[nH]c2ncccc12 [Compound P-0169]
≤ 10 µM: Kdr | Gsk3β | Abl | Stk6

CN(C)c1cccc(Nc2ccc3cc[nH]c3n2)c1 [Compound P-1372, N,N-Dimethyl-N′-(1H-pyrrolo[2,3-b]pyridin-6-yl)-benzene-1,3-diamine]
≤ 10 µM: Gsk3β | Pyk2 | Kit | Jnk3 | Flt1 | Fms | MAP4K4

O=C(c1c(F)ccc(NS(=O)(=O)c2ccccc2)c1F)c1c[nH]c2ncccc12 [Compound P-0913, N-[2,4-Difluoro-3-(1H-pyrrolo[2,3-b]pyridine-3-carbonyl)-phenyl]-benzenesulfonamide]
≤ 10 µM: Gsk3β | B-Raf | c-Raf-1 | Kit | B-Raf V600E | FGFR1 | Fms | MAP4K4

Nc1ccc(F)c(C(=O)c2c[nH]c3ncc(-c4cccnc4)cc23)c1F [Compound P-0763, (3-amino-2,6-difluoro-phenyl)-(5-pyridin-3-yl-1H-pyrrolo[2,3-b]pyridin-3-yl)-methanone]
not listed: Kdr | Abl | Stk6 | Pyk2 | Flt1 | MAP4K4
≤ 10 µM: all other assays above

CCS(=O)(=O)Nc1ccc(F)c(C(=O)c2c[nH]c3ncc(-c4cccnc4)cc23)c1F [Compound P-0728, N-[2,4-difluoro-3-(5-pyridin-3-yl-1H-pyrrolo[2,3-b]pyridine-3-carbonyl)-phenyl]-ethanesulfonamide]
≤ 10 µM: Gsk3β | B-Raf | Ret | Pyk2 | c-Raf-1 | B-Raf V600E | Jnk1 | FGFR1 | MAP4K4

CCCS(=O)(=O)Nc1ccc(F)c(C(=O)c2c[nH]c3ncc(OCC)cc23)c1F [Compound P-1252, Propane-1-sulfonic acid [3-(5-ethoxy-1H-pyrrolo[2,3-b]pyridine-3-carbonyl)-2,4-difluoro-phenyl]-amide]
≤ 10 µM: Gsk3β | B-Raf | Kit | B-Raf V600E | Src | FGFR1 | Fms | MAP4K4
